Consider 1 compound from PMC4627231, “Targeting the sugar metabolism of tumors with a first-in-class 6-phosphofructo-2-kinase (PFKFB4) inhibitor” (Oncotarget, 2015).

In data set [1] the test system is Lewis lung carcinomas (LLC). Description: Lewis lung carcinoma tumor growth in syngeneic mice. In kind it is in vivo, C57BL/6 mice. As to conditions: 120 mg/kg daily by gavage. The protocol: For xenograft studies, LLC or H460 cells collected from exponential growth phase culture were washed and resuspended in PBS. Groups of female C57BL/6 mice were injected with LLC cells (n=10 per group, s.c., 1×10^6 cells) and groups of female BALB/c athymic mice (Charles River) were injected with H460 cells (n=10 per group, s.c, 5 × 10^6 cells). Tumor masses were determined in a blinded fashion with Vernier calipers using the formula: mass (mg) = (width, mm)^2 X (length, mm)/2 as previously described. When tumor masses were 150-200 mg, mice were randomized to daily DMSO or 5MPN (in 30% Captisol, 100 μl, by gavage). Tumor measurements and body weights were followed daily. All data are expressed as the mean ± SD of two experiments. Statistical significance was assessed by the two-sample t test (independent variable).

Data set [2] concerns panel of 97 protein kinases. Description: KINOMEscan active-site dependent competition binding assay. As to conditions: 10 μM, data not shown. The protocol:
The fructose-6-phosphate kinase activity of human recombinant PFKFB4 and human recombinant PFKFB3 in the presence of DMSO ± indicated concentrations of 5MPN was assayed as previously described. The activity of 5MPN against 97 kinases was examined using a commercially available active-site dependent competition binding assay core service (KINOMEscanEDGE) that quantifies the capacity of test agents to compete with an immobilized, active-site directed ligand using a DNA-tagged kinase and immobilized ligand and compound.

Another data set deals with H441 cells. Description: Viable cell count (trypan blue exclusion). The format is cell-based, human. As to conditions: H441, 48 hours. The protocol:
(§1) Viability was determined using trypan blue exclusion as previously described. Cells were incubated in 20% trypan blue (Sigma) for 5 minutes. Cells excluding trypan blue were counted using a standard hemocytometer (Hausser Scientific) to determine total numbers of viable cells. Data are expressed as mean ± SD of three experiments.

For another data set, the system named is H1299 cells. Description: Viable cell count (trypan blue exclusion). In kind it is cell-based, human. As to conditions: H1299, 48 hours. The protocol: as §1
Another data set concerns MDA-MB-231 cells. The experiment in a line: Viable cell count (trypan blue exclusion). In kind it is cell-based, human. As to conditions: MDA-MB-231, 48 hours. The method, then:
as §1

The next data set relates to H522 cells. The experiment in a line: Viable cell count (trypan blue exclusion). The format is cell-based, human. As to conditions: H522, 48 hours. The method, then:
as §1

The subject of another data set is A549 cells. The experiment in a line: Viable cell count (trypan blue exclusion). In kind it is cell-based, human. The conditions noted are these: A549, 48 hours. The protocol: as §1
The next data set concerns LNCaP cells. The experiment in a line: Viable cell count (trypan blue exclusion). The conditions noted are these: 48 hours. In kind it is cell-based, human. The method, then:
as §1

A further data set concerns HCT116 cells. The experiment in a line: Viable cell count (trypan blue exclusion). In kind it is cell-based, human. The conditions noted are these: HCT116, 48 hours. The protocol: as §1
For the next data set, the system named is hT/LT/Ras cells. Description: Viable cell count (trypan blue exclusion). In kind it is cell-based, human. The conditions noted are these: live cells counted at 48 hours. The protocol:
as §1

Another data set concerns H460 cells. The experiment in a line: Viable cell count (trypan blue exclusion). In kind it is cell-based, human. The protocol: as §1
The test system of another data set is glycolysis in H460 cells. Description: Glycolysis assay (3H2O from 5-[3H]glucose). In kind it is cell-based, human. As to conditions: 10 μM, 6-72 hours. The protocol:
Cells growing in 6-well plates were incubated in 500 μl of complete medium containing 1 μCi of 5-[^3H]glucose per well for 60 min in 5% CO2 at 37°C. Media was collected, ^3H2O formed via glycolysis from the 5-[^3H]glucose measured and counts normalized as previously described. All data are expressed as the mean ± SD of three experiments. Statistical significance was assessed by the two-sample t test (independent variable).

For data set [3], the system named is 2-[18F]-fluoro-2-deoxyglucose uptake by LLC xenografts. Description: FDG uptake by micro-PET in LLC tumors. In kind it is in vivo, C57BL/6 mice. As to conditions: 120 mg/kg by gavage, once, one hour before imaging. The method, then: (§2) At the end of the experiment, one hour after a single dose of DMSO or 5MPN, animals were euthanized, tumors removed and sections fixed in 10% formaldehyde for immunohistochemistry or snap-frozen in liquid nitrogen for analyses. Subsets of tumor-bearing mice (n=3) were administered a single dose of either DMSO or 5MPN one hour prior to imaging then injected i.p. with 2-[^18F]-fluoro-2-deoxyglucose (FDG, 150μCi, 100 μl) and, 45 min after FDG injection, were anesthetized with 2% isoflurane in oxygen and transferred to a R-4 Rodent Scanner (CTI Concorde Microsystems) micro-positron emission tomograph to capture images as previously described. Regions of interest in the tumors and cerebellum were quantified in quadruplicate and expressed as the mean ± SD of the ratio of tumor:cerebellar FDG uptake. Animal experiments were approved by the University of Louisville Institutional Animal Care and Use Committee.

Data set [4] deals with intratumoral F2,6BP, LLC xenografts. Description: Intratumoral F2,6BP in LLC tumors. The conditions noted are these: after 10 days of treatment, one hour after dose by gavage. The format is in vivo, C57BL/6 mice. The protocol:
Cells or tissues were prepared as previously described and F2,6BP content measured using a coupled enzyme reaction following the method of Van Schaftingen et al and normalized to total cellular protein measured by the bicinchoninic acid assay (Thermo Scientific). All data are expressed as the mean ± SD of three experiments. Statistical significance was assessed by the two-sample t test (independent variable).
as §2

Data set [5] deals with normal human bronchial epithelial (NHBE) cells. The experiment in a line: Viable cell count (trypan blue exclusion). In kind it is cell-based. The conditions noted are these: live cells counted at 48 hours. The method, then:
as §1

In another data set the test system is C57BL/6 mice. The experiment in a line: Two-week oral toxicity study. As to conditions: 120 mg/kg PO, two weeks. In kind it is in vivo. The method, then:
Given the potential usefulness of oral administration in terms of cost and convenience, we elected to pursue this route in subsequent toxicity and efficacy pre-clinical studies. Initially, we dosed C57BL/6 mice with 120 mg/kg PO (dose chosen based on a dose escalation trial) for two weeks and analyzed the effect on complete blood counts, electrolytes, hepatic and renal function, body mass and the gross and histological appearance of the brain, heart, lungs, liver, kidneys and spleen. […] We confirmed that 5MPN caused a G1 arrest in LLC cells in vitro similar to H460 cells (Figure 4G) and then examined the number of Ki67-positive cells since Ki67 expression correlates with later S and G2 phases of the cell cycle.

The test system of data set [6] is Ki67-positive cells in LLC xenografts. The experiment in a line: Ki67 immunohistochemistry of LLC tumors. The format is in vivo, C57BL/6 mice. The conditions noted are these: oral administration. The method, then: Five μm mounted sections of formalin-fixed, paraffin-embedded LLC tumor tissues were processed as previously described and then incubated with anti-Ki-67 primary antibody (Abcam) overnight, followed by HRP-linked goat anti-rabbit secondary antibody (1:300, Pierce). Sections were developed with 3,3′-diaminobenzidine tetrahydrochloride and counterstained as previously described. Slides were scanned using a ScanScope XT Digital Slide Scanner (Aperio), data analyzed with the positive pixel count algorithm (ImageScope, Aperio) and a minimum of 5 fields (20x magnification) were quantified for each tumor section. The data are depicted as % positive pixels/total pixels ± SD.

With `COc1cccc2c(NCCCCCO[N+](=O)[O-])ccnc12` [Compound 5MPN, 5-(n-(8-methoxy-4-quinolyl)amino)pentyl nitrate], the tumor growth result in data set [1] (LLC in syngeneic C57BL/6 mice) is given as “suppressed the growth”. In addition, the body weight entry in data set [1] (LLC-bearing C57BL/6 mice) was “without affecting body weight”. The “inhibition of a panel of 97 protein kinases” value in data set [2] was “not inhibited”. The effect on proliferation result with H441 cells, with H1299 cells, with MDA-MB-231 cells, with H522 cells, with A549 cells and in the data set on LNCaP cells was “dose-dependent reduction in growth” each time. Also, the effect on proliferation entry in the data set on HCT116 cells was “dose-dependent reduction in growth”; in the data set on H460 cells (H460, 48 hours) it was “dose-dependent reduction in growth”. Besides, the “effect on cell growth” value in the data set on hT/LT/Ras cells is listed as “suppressed similar to other transformed cells”; in data set [5] it was “virtually unaffected”. In addition, the “effect of PFKFB4 over-expression on anti-proliferative effect” value with H460 cells (H460 cells transfected with PFKFB4 vs empty vector, 10μM 5MPN, 24 hours) is “protected”. In addition, the effect on glycolysis entry with glycolysis in H460 cells is “reduced”. Besides, the “2-[18F]-fluoro-2-deoxyglucose uptake (positron emission tomography)” value in [3] is reported as “marked reduction”. Also, the “intratumoral F2,6BP” value in [4] is “marked reduction”. Further, in the data set with C57BL/6 mice, the “signs of toxicity (blood counts, electrolytes, hepatic and renal function, body mass, organ histology, behavior)” value was “no signs of toxicity”. In addition, the Ki67-positive cells entry in [6] is “reduction”.
